In patent US11780839B2, “Compounds for treating Huntington's disease” (PTC THERAPEUTICS, INC., priority 2018, dated 2023) one finds IC50 data, which are given here for 35 molecules.

The test system of this assay is Endogenous Huntingtin Protein. As to the kind of experiment: Endogenous Huntingtin Protein Assay (ELISA-based Meso Scale Discovery electrochemiluminescence). It counts as cell-based. Particulars: MSD electrochemiluminescence, Table 1. The essentials:
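Huntingtin was captured overnight at 4 °C on plates coated with 1 μg/mL MW1 (polyQ-expanded) or MAB2166 antibody and BSA-blocked. Detection used a rabbit monoclonal and then a SULFO-TAG goat anti-rabbit antibody (0.25 μg/mL, 1 h each, room temperature). Signal was read by electrochemiluminescence.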
For orientation: ELISA stands for enzyme-linked immunosorbent assay.
Usually IC50 stands for the concentration needed to halve the response being measured. For the molecule `CC(C)(C)NC1CCN(c2ncc(-c3ccc(-n4nccn4)cc3O)nn2)C1` (stereo not drawn) [Cpd 204, 2-{3-[3-(tert-butylamino)pyrrolidin-l-yl]-1,2,4-triazin-6-yl}-5-(2H-1,2,3-triazol-2-yl)phenol], the IC50 was ≤ 100 nM.

With `CNC1CCN(c2ncc(-c3ccc(-c4cnn(C)c4)cc3O)nn2)C1` (stereo not drawn) [Cpd 205, 2-{3-[3-(methylamino)pyrrolidin-l-yl]-1,2,4-triazin-6-yl}-5-(1-methyl-1H-pyrazol-4-yl)phenol], the IC50 is ≤ 100 nM.

As for `CC(C)(C)NC1CCN(c2ncc(-c3ccc(-c4cn[nH]c4)cc3O)nn2)CC1` [Cpd 206, 2-{3-[4-(tert-butylamino)piperidin-l-yl]-1,2,4-triazin-6-yl}-5-(1H-pyrazol-4-yl)phenol], the half-inhibitory concentration (IC50) is 1000 to 3000 nM.

`CC(C)(C)NC1CCN(c2ncc(-c3ccc(-c4ccn5nncc5c4)cc3O)nn2)C1` (stereo not drawn) [Cpd 207, 2-{3-[3-(tert-butylamino)pyrrolidin-l-yl]-1,2,4-triazin-6-yl}-5-([1,2,3]triazolo[1,5-a]pyridin-5-yl)phenol] gave an IC50 of 1000 to 3000 nM.

In turn, `Cn1ncc2cc(-c3ccc(-c4cnc(N5CCC(NC(C)(C)C)C5)nn4)c(O)c3)ccc21` (stereo not drawn) [Cpd 208, 2-{3-[3-(tert-butylamino)pyrrolidin-l-yl]-1,2,4-triazin-6-yl}-5-(1-methyl-1H-indazol-5-yl)phenol] displayed an IC50 of 100 to 500 nM.

In turn, `CC(C)(C)NC1CCN(c2ncc(-c3ccc(-c4ncccn4)cc3O)nn2)C1` (stereo not drawn) [Cpd 209, 2-{3-[3-(tert-butylamino)pyrrolidin-l-yl]-1,2,4-triazin-6-yl}-5-(pyrimidin-2-yl)phenol] registered an IC50 of 1000 to 3000 nM.

`Cn1ncc(-c2ccc(-c3cnc(N4CCC(NC(C)(C)C)C4)nn3)c(O)c2)n1` (centres unmarked) [Cpd 210, 2-{3-[3-(tert-butylamino)pyrrolidin-1-yl]-1,2,4-triazin-6-yl}-5-(2-methyl-2H-1,2,3-triazol-4-yl)phenol]: the IC50 was ≤ 100 nM.

On to `Cn1nnc(-c2ccc(-c3cnc(N4CCC(NC(C)(C)C)C4)nn3)c(O)c2)n1` (centres unmarked) [Cpd 211, 2-{3-[3-(tert-butylamino)pyrrolidin-1-yl]-1,2,4-triazin-6-yl}-5-(2-methyl-2H-tetrazol-5-yl)phenol], for which the IC50 is ≤ 100 nM.

As for `CC(C)(C)NC1CCCN(c2ncc(-c3ccc(-c4cn[nH]c4)cc3O)nn2)C1` (centres unmarked) [Cpd 212, 2-{3-[3-(tert-butylamino)piperidin-1-yl]-1,2,4-triazin-6-yl}-5-(1H-pyrazol-4-yl)phenol], the IC50 lay within 100 to 500 nM.

`CC(C)NC1CCN(c2ncc(-c3ccc(-c4ccn(C)n4)cc3O)nn2)C1` (centres unmarked) [Cpd 213, 5-(1-methyl-1H-pyrazol-3-yl)-2-(3-{3-[(propan-2-yl)amino]pyrrolidin-1-yl}-1,2,4-triazin-6-yl)phenol]: the IC50 fell in the range of 1000 to 3000 nM.

Take `Cn1ccc(-c2ccc(-c3cnc(N4CCC(NC(C)(C)C)C4)nn3)c(O)c2)cc1=O` (centres unmarked) [Cpd 214, 4-(4-{3-[3-(tert-butylamino)pyrrolidin-1-yl]-1,2,4-triazin-6-yl}-3-hydroxyphenyl)-1-methylpyridin-2(1H)-one]: the IC50 was ≤ 100 nM.

Consider `Cn1nnc2nc(-c3ccc(-c4cnc(N5CCC(NC(C)(C)C)C5)nn4)c(O)c3)ccc21` (centres unmarked) [Cpd 215, 2-{3-[3-(tert-butylamino)pyrrolidin1-yl]-1,2,4-triazin-6-yl}-5-(1-methyl-1H-[1,2,3]triazolo[4,5-b]pyridin-5-yl)phenol], for which the IC50 lay in the range of 100 to 500 nM.

Molecule `Cn1cnc(-c2ccc(-c3cnc(N4CCC(NC(C)(C)C)C4)nn3)c(O)c2)cc1=O` (centres unmarked) [Cpd 216, 6-(4-{3-[3-(tert-butylamino)pyrrolidin-1-yl]-1,2,4-triazin-6-yl}-3-hydroxyphenyl)-3-methylpyrimidin-4(3H)-one] displayed an IC50 of 100 to 500 nM.

On to `COc1cc(-c2ccc(-c3cnc(N4CCC(NC(C)(C)C)C4)nn3)c(O)c2)ncn1` (centres unmarked) [Cpd 217, 2-{3-[3-(tert-butylamino)pyrrolidin-1-yl]-1,2,4-triazin-6-yl}-5-(6-methoxypyrimidin-4-yl)phenol], for which the IC50 was ≤ 100 nM.

`CNC1CCN(c2ncc(-c3ccc(-n4nccn4)cc3O)nn2)C1` (centres unmarked) [Cpd 218, 2-{3-[3-(methylamino)pyrrolidin-1-yl]-1,2,4-triazin-6-yl}-5-(2H-1,2,3-triazol-2-yl)phenol]: the 50% inhibitory concentration (IC50) was in the range of 100 to 500 nM.

In turn, `CNC1CCN(c2ncc(-c3ccc(-n4cc(F)cn4)cc3O)nn2)C1` (centres unmarked) [Cpd 219, 5-(4-fluoro-1H-pyrazol-1-yl)-2-{3-[3-(methylamino)pyrrolidin-1-yl]-1,2,4-triazin-6-yl}phenol] displayed an IC50 of 100 to 500 nM.

`CNC1CCN(c2ncc(-c3ccc(-n4ccnc4)cc3O)nn2)C1` (centres unmarked) [Cpd 220, 5-(1H-imidazol-1-yl)-2-{3-[3-(methylamino)pyrrolidin-1-yl]-1,2,4-triazin-6-yl}phenol]: the IC50 was > 500 nM.

Consider `Cn1ncc2cc(-c3ccc(-c4cnc(N5CCC(NC(C)(C)C)C5)nn4)c(O)c3)cnc21` (centres unmarked) [Cpd 221, 2-{3-[3-(tert-butylamino)pyrrolidin-1-yl]-1,2,4-triazin-6-yl}-5-(1-methyl-1H-pyrazolo[3,4-b]pyridin-5-yl)phenol], for which the IC50 is > 500 nM.

As for `CN(c1ncc(-c2ccc(-c3cc4cnn(C)c4cn3)cc2O)nn1)C1CC(C)(C)NC(C)(C)C1` [Cpd 222, 5-(1-methyl-1H-pyrazolo[3,4-c]pyridin-5-yl)-2-{3-[methyl(2,2,6,6-tetramethylpiperidin-4-yl)amino]-1,2,4-triazin-6-yl}phenol], the IC50 was ≤ 100 nM.

As for `CN1CCC2(CC1)CN(c1ncc(-c3ccc(-c4ccc5c(cnn5C)c4)cc3O)nn1)C2` [Cpd 223], the IC50 lay within 100 to 500 nM.

Consider `CN1CCC2(CC1)CN(c1ncc(-c3ccc(-c4cnc5c(cnn5C)c4)cc3O)nn1)C2` [Cpd 224, 2-[3-(7-methyl-2,7-diazaspiro[3.5]nonan-2-yl)-1,2,4-triazin-6-yl]-5-(1-methyl-1H-pyrazolo[3,4-b]pyridin-5-yl)phenol], for which the IC50 is 1000 to 3000 nM.

As for `CC(C)(C)NC1CCN(c2ncc(-c3ccc(-c4c[nH]nn4)cc3O)nn2)C1` (centres unmarked) [Cpd 225, 2-{3-[3-(tert-butylamino)pyrrolidin-1-yl]-1,2,4-triazin-6-yl}-5-(1H-1,2,3-triazol-4-yl)phenol], the IC50 is ≤ 100 nM.

As to `CN1CCC2(CC1)CN(c1ncc(-c3ccc(-c4cnn(C)c4)cc3O)nn1)C2` [Cpd 226, 2-[3-(7-methyl-2,7-diazaspiro[3.5]nonan-2-yl)-1,2,4-triazin-6-yl]-5-(1-methyl-1H-pyrazol-4-yl)phenol], the IC50 is ≤ 100 nM.

As to `CC(C)NC1CCN(c2ncc(-c3ccc(-c4ccn(C)c(=O)c4)cc3O)nn2)C1` (centres unmarked) [Cpd 227, 4-[3-hydroxy-4-(3-{3-[(propan-2-yl)amino]pyrrolidin-1-yl}-1,2,4-triazin-6-yl)phenyl]-1-methylpyridin-2(1H)-one], the IC50 is ≤ 100 nM.

`Cc1cn(-c2ccc(-c3cnc(N4CC5(CCN(C)CC5)C4)nn3)c(O)c2)cn1` [Cpd 228, 2-[3-(7-methyl-2,7-diazaspiro[3.5]nonan-2-yl)-1,2,4-triazin-6-yl]-5-(4-methyl-1H-imidazol-1-yl)phenol]: the IC50 is ≤ 100 nM.

Consider `CN1CCC2(CC1)CN(c1ncc(-c3ccc(-n4cc(F)cn4)cc3O)nn1)C2` [Cpd 229, 5-(4-fluoro-1H-pyrazol-1-yl)-2-[3-(7-methyl-2,7-diazaspiro[3.5]nonan-2-yl)-1,2,4-triazin-6-yl]phenol], for which the IC50 was > 500 nM.

As to `CN1CCC2(CC1)CN(c1ncc(-c3ccc(-n4cnc(F)c4)cc3O)nn1)C2` [Cpd 230, 5-(4-fluoro-1H-imidazol-1-yl)-2-[3-(7-methyl-2,7-diazaspiro[3.5]nonan-2-yl)-1,2,4-triazin-6-yl]phenol], the IC50 is > 500 nM.

`CN1CCC2(CC1)CN(c1ncc(-c3ccc(-n4ccnc4)cc3O)nn1)C2` [Cpd 231, 5-(1H-imidazol-1-yl)-2-[3-(7-methyl-2,7-diazaspiro[3.5]nonan-2-yl)-1,2,4-triazin-6-yl]phenol] came in with an IC50 of 100 to 500 nM.

Turning to `CN1CCC2(CC1)CN(c1ncc(-c3ccc(-n4nccn4)cc3O)nn1)C2` [Cpd 232, 2-[3-(7-methyl-2,7-diazaspiro[3.5]nonan-2-yl)-1,2,4-triazin-6-yl]-5-(2H-1,2,3-triazol-2-yl)phenol], the IC50 is ≤ 100 nM.

With `CN1CCC2(CC1)CN(c1ncc(-c3ccc(-c4ccn(C)n4)cc3O)nn1)C2` [Cpd 233, 2-[3-(7-methyl-2,7-diazaspiro[3.5]nonan-2-yl)-1,2,4-triazin-6-yl]-5-(1-methyl-1H-pyrazol-3-yl)phenol], the IC50 was in the range of 1000 to 3000 nM.

In turn, `CC(C)NC1CCN(c2ncc(-c3ccc(-c4cc(=O)n(C)cn4)cc3O)nn2)C1` (centres unmarked) [Cpd 234, 6-[3-hydroxy-4-(3-{3-[(propan-2-yl)amino]pyrrolidin-1-yl}-1,2,4-triazin-6-yl)phenyl]-3-methylpyrimidin-4(3H)-one] yielded an IC50 of 100 to 500 nM.

For `CC(C)NC1CCN(c2ncc(-c3ccc(-c4cn[nH]c4F)cc3O)nn2)C1` (centres unmarked) [Cpd 235, 5-(5-fluoro-1H-pyrazol-4-yl)-2-(3-{3-[(propan-2-yl)amino]pyrrolidin-1-yl}-1,2,4-triazin-6-yl)phenol], the IC50 is ≤ 100 nM.

Consider `CC(C)NC1CCN(c2ncc(-c3ccc(-c4cnn(C)n4)cc3O)nn2)C1` (centres unmarked) [Cpd 236, 5-(2-methyl-2H-1,2,3-triazol-4-yl)-2-(3-{3-[(propan-2-yl)amino]pyrrolidin-1-yl}-1,2,4-triazin-6-yl)phenol], for which the half-inhibitory concentration (IC50) was ≤ 100 nM.

On to `CC(C)NC1CCN(c2ncc(-c3ccc(-c4ncns4)cc3O)nn2)C1` (centres unmarked) [Cpd 237, 2-(3-{3-[(propan-2-yl)amino]pyrrolidin-1-yl}-1,2,4-triazin-6-yl)-5-(1,2,4-thiadiazol-5-yl)phenol], for which the IC50 lay within 100 to 500 nM.

Take `Cc1cn(-c2ccc(-c3cnc(N[C@H]4CC(C)(C)NC(C)(C)[C@H]4F)nn3)c(O)c2)cn1` [Cpd 239, 2-{3-{[(3S,4S)-3-fluoro-2,2,6,6-tetramethylpiperidin-4-yl]amino}-1,2,4-triazin-6-yl)-5-(4-methyl-1H-imidazol-1-yl)phenol]: the IC50 was ≤ 100 nM.
